{"source": "patent US8574563B2", "about": "(Bristol-Myers Squibb Company, priority 2006, dated 2013)"}
{"system": "HCV 1b-377-neo replicon cells", "experiment": "HCV replicon assay, HCV 1b-377-neo replicon cells (1b FRET)", "format": "cell-based, Hepatitis C virus genotype 1b", "conditions": "HCV 1b-377-neo replicon cells; HCV 1b genotype", "how_it_was_run": "(§1)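 Compounds were tested in genotype 1b subgenomic replicon cells carrying a neomycin marker, alongside a matched replicon line with an NS5A Y2065H substitution that confers resistance to a reference NS5A inhibitor.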"}
{"smiles": "COC(=O)N[C@@H](C(=O)N1CCC[C@H]1c1ncc(-c2ccc(-c3ccc(-c4cnc([C@@H]5CCCN5C(=O)Cc5ccccc5Cl)[nH]4)cc3)cc2)[nH]1)c1ccccc1", "note": "[Example 84-66, methyl ((1R)-2-((2S)-2-(5-(4′-(2-((2S)-1-((2-chlorophenyl)acetyl)-2-pyrrolidinyl)-1H-imidazol-5-yl)-4-biphenylyl)-1H-imidazol-2-yl)-1-pyrrolidinyl)-2-oxo-1-phenylethyl)carbamate]", "EC50 range against HCV 1b (Table 2, Range)": "C-D"}
{"system": "HCV 1b-377-neo replicon cells", "experiment": "HCV replicon assay, HCV 1b-377-neo replicon cells (1b FRET)", "format": "cell-based, Hepatitis C virus genotype 1b", "conditions": "HCV 1b-377-neo replicon cells; HCV 1b genotype; read-out: EC50 range against HCV 1b (Table 2, Range)", "how_it_was_run": "as §1", "units": {"EC50": "nM"}}
{"smiles": "COC(=O)N[C@@H](C(=O)N1CCC[C@H]1c1ncc(-c2ccc(-c3ccc(-c4cnc([C@@H]5CCCN5C(=O)[C@@H]5C[C@@H]6C[C@@H]6N5)[nH]4)cc3)cc2)[nH]1)c1ccccc1", "note": "[Example 83, methyl ((1R)-2-((2)S-2-(5-(4′ (2-((2S)-1-((1S,3S,5S)-2-azabicyclo[3.1.0]hex-3-ylcarbonyl)-2-pyrrolidinyl)-1H-imidazol-5-yl)-4-biphenylyl)-1H-imidazol-2-yl)-1-pyrrolidinyl)-2-oxo-1-phenylethyl)carbamate]", "EC50": "0.001 to 0.999"}
{"system": "HCV 1b-377-neo replicon cells", "experiment": "HCV replicon assay, HCV 1b-377-neo replicon cells (1b FRET)", "format": "cell-based, Hepatitis C virus genotype 1b", "conditions": "Hepatitis C virus, HCV 1b-377-neo replicon cells; HCV 1b genotype; read-out: EC50 range against HCV 1b (Table 2, Range)", "how_it_was_run": "as §1", "units": {"EC50": "nM"}}
{"smiles": "COC(=O)N[C@@H](C(=O)N1CCC[C@H]1c1ncc(-c2cnc(-c3ncc(-c4cnc([C@@H]5CCCN5C(=O)[C@H](NC(=O)OC)c5ccccc5)[nH]4)cn3)nc2)[nH]1)c1ccccc1", "note": "[Example 153c-4, dimethyl (2,2′-bipyrimidine-5,5′-diylbis(1H-imidazole-5,2-diyl(2S)-2,1-pyrrolidinediyl((1R)-2-oxo-1-phenyl-2,1-ethanediyl)))biscarbamate]", "EC50": "1000 to 10000"}
{"smiles": "COC(=O)N[C@@H](C)C(=O)N1CCC[C@H]1c1ncc(-c2ccc(-c3ccc(-c4cnc([C@@H]5CCCN5C(=O)[C@H](Cn5cccn5)NC(=O)OC)[nH]4)cc3)cc2)[nH]1", "note": "[cj-37, methyl ((1S)-2-((2S)-2-(5-(4′-(2-((2S)-1-(N-(methoxycarbonyl)-L-alanyl)-2-pyrrolidinyl)-1H-imidazol-5-yl)-4-biphenylyl)-1H-imidazol-2-yl)-1-pyrrolidinyl)-2-oxo-1-(1H-pyrazol-1-ylmethyl)ethyl)carbamate]", "EC50": "0.001 to 0.999"}
{"smiles": "COC(=O)N[C@@H](C(=O)N1CCC[C@H]1c1ncc(-c2ccc(-c3ccc(-c4cnc([C@@H]5CCCN5C(=O)N5CCN(C)CC5)[nH]4)cc3)cc2)[nH]1)c1ccccc1", "note": "[Example 29, methyl ((1R)-2-((2S)-2-(5-(4′-(2-((2S)-1-((4-methyl-1-piperazinyl)carbonyl)-2-pyrrolidinyl)-1H-imidazol-5-yl)-4-biphenylyl)-1H-imidazol-2-yl)-1-pyrrolidinyl)-2-oxo-1-phenylethyl)carbamate]", "EC50": "0.001 to 0.999"}
{"smiles": "CCN(CC)[C@@H](C(=O)N1CCC[C@H]1c1nc(-c2ccc(-c3ccc(-c4[nH]c([C@@H]5CCCN5C(=O)[C@@H](c5ccccc5)N(CC)CC)nc4C)cc3)cc2)c(C)[nH]1)c1ccccc1", "note": "[Example E5h, (1R,1′R)-2,2′-(4,4′-biphenyldiylbis((4-methyl-1H-imidazole-5,2-diyl)(2S)-2,1-pyrrolidinediyl))bis(N,N-diethyl-2-oxo-1-phenylethanamine)]", "EC50": "0.001 to 0.999"}
{"smiles": "COC(=O)N[C@@H]1CC[C@H](C(=O)N2CCC[C@H]2c2ncc(-c3ccc(-c4ccc(-c5cnc([C@@H]6CCCN6C(=O)[C@H](NC(=O)OC)c6ccccc6)[nH]5)cc4)cc3)[nH]2)C1", "note": "[cj-64, methyl ((1R)-2-((2S)-2-(5-(4′-(2-((2S)-1-(((1S,3R)-3-((methoxycarbonyl)amino)cyclopentyl)carbonyl)-2-pyrrolidinyl)-1H-imidazol-5-yl)-4-biphenylyl)-1H-imidazol-2-yl)-1-pyrrolidinyl)-2-oxo-1-phenylethyl)carbamate]", "EC50": "0.001 to 0.999"}
{"smiles": "COC(=O)N[C@@H](Cc1c[nH]c2ccccc12)C(=O)N1CCC[C@H]1c1ncc(-c2ccc(-c3ccc(-c4cnc([C@@H]5CCCN5C(=O)[C@@H](NC(=O)OC)C(C)C)[nH]4)cc3)cc2)[nH]1", "note": "[cj-99, methyl ((1S)-1-(((2S)-2-(5-(4′-(2-((2S)-1-((2S)-3-(1H-indol-3-yl)-2-((methoxycarbonyl)amino)propanoyl)-2-pyrrolidinyl)-1H-imidazol-5-yl)-4-biphenylyl)-1H-imidazol-2-yl)-1-pyrrolidinyl)carbonyl)-2-methylpropyl)carbamate]", "EC50": "0.001 to 0.999"}
{"smiles": "CCN(CC)[C@@H](C(=O)N1CCC[C@H]1c1ncc(-c2ccc(-c3ccc(-c4cnc([C@@H]5CCCN5C(=O)[C@@H]5COC(=O)N5)[nH]4)cc3)cc2)[nH]1)c1ccccc1", "note": "[Example M44, (4S)-4-(((2S)-2-(5-(4′-(2-((2S)-1-((2R)-2-(diethylamino)-2-phenylacetyl)-2-pyrrolidinyl)-1H-imidazol-5-yl)-4-biphenylyl)-1H-imidazol-2-yl)-1-pyrrolidinyl)carbonyl)-1,3-oxazolidin-2-one]", "EC50": "100 to 999"}
{"smiles": "COC(=O)N[C@H](C(=O)N1CCC[C@H]1c1ncc(-c2ccc(-c3ccc(-c4nc([C@@H]5CCCN5C(=O)[C@@H](NC(=O)OC)[C@@H](C)OC)[nH]c4CC(OC)OC)cc3)cc2)[nH]1)[C@@H](C)OC", "note": "[Example J14a, methyl ((1S,2R)-1-(((2S)-2-(4-(2,2-dimethoxyethyl)-5-(4′-(2-((2S)-1-(N-(methoxycarbonyl)-O-methyl-L-threonyl)-2-pyrrolidinyl)-1H-imidazol-4-yl)-4-biphenylyl)-1H-imidazol-2-yl)-1-pyrrolidinyl)carbonyl)-2-methoxypropyl)carbamate]", "EC50": "0.001 to 0.999"}
{"smiles": "COC(=O)N[C@@H](C(=O)N[C@@H](C)c1ncc(-c2ccc(-c3cnc(-c4cnc([C@@H]5CCCN5C(=O)[C@H](NC(=O)OC)c5ccccc5)[nH]4)cn3)cc2)[nH]1)c1ccccc1", "note": "[Example 152j-28, methyl ((1R)-2-((2S)-2-(5-(5-(4-(2-((1S)-1-(((2R)-2-((methoxycarbonyl)amino)-2-phenylacetyl)amino)ethyl)-1H-imidazol-5-yl)phenyl)-2-pyrazinyl)-1H-imidazol-2-yl)-1-pyrrolidinyl)-2-oxo-1-phenylethyl)carbamate]", "EC50": "0.001 to 0.999"}
{"smiles": "COC(=O)N[C@H](C(=O)N1CCC[C@H]1c1nc(-c2ccc(-c3ccc(-c4c[nH]c([C@@H]5CCCN5C(=O)[C@H](C)NC5CCOCC5)n4)cc3)cc2)c[nH]1)C(C)C", "note": "[Example F48, methyl ((1S)-2-methyl-1-(((2S)-2-(4-(4′-(2-((2S)-1-(N-(tetrahydro-2H-pyran-4-yl)-L-alanyl)-2-pyrrolidinyl)-1H-imidazol-4-yl)-4-biphenylyl)-1H-imidazol-2-yl)-1-pyrrolidinyl)carbonyl)propyl)carbamate]", "EC50": "0.001 to 0.999"}
{"smiles": "COC(=O)N[C@@H](C)C(=O)N1CCC[C@H]1c1ncc(-c2ccc(-c3ccc(-c4cnc([C@@H]5CCCN5C(=O)[C@@H](c5ccccc5)N5CCCC5)[nH]4)cc3)cc2)[nH]1", "note": "[Example 101, methyl ((1S)-1-methyl-2-oxo-2-((2S)-2-(5-(4′-(2-((2S)-1-((2R)-2-phenyl-2-(1-pyrrolidinyl)acetyl)-2-pyrrolidinyl)-1H-imidazol-5-yl)-4-biphenylyl)-1H-imidazol-2-yl)-1-pyrrolidinyl)ethyl)carbamate]", "EC50": "0.001 to 0.999"}
{"smiles": "CN(C)[C@@H](C(=O)N1CCC[C@H]1c1ncc(-c2ccc(-c3ccc(-c4[nH]c([C@@H]5CCCN5C(=O)[C@@H](c5ccccc5)N(C)C)nc4C(=O)OCc4ccccc4)cc3)cc2)[nH]1)c1ccccc1", "note": "[Example J22, benzyl 2-((2S)-1-((2R)-2-(dimethylamino)-2-phenylacetyl)-2-pyrrolidinyl)-5-(4′-(2-((2S)-1-((2R)-2-(dimethylamino)-2-phenylacetyl)-2-pyrrolidinyl)-1H-imidazol-5-yl)-4-biphenylyl)-1H-imidazole-4-carboxylate]", "EC50": "0.001 to 0.999"}
{"smiles": "CN(C)[C@@H](C(=O)N1CCC[C@H]1c1ncc(-c2ccc(-c3ccc(-c4cnc([C@@H]5CCCN5C(=O)[C@@](C)(O)c5ccccc5F)[nH]4)cc3)cc2)[nH]1)c1ccccc1", "note": "[Example 94-1, (2S)-1-((2S)-2-(5-(4′-(2-((2S)-1-((2R)-2-(dimethylamino)-2-phenylacetyl)-2-pyrrolidinyl)-1H-imidazol-5-yl)-4-biphenylyl)-1H-imidazol-2-yl)-1-pyrrolidinyl)-2-(2-fluorophenyl)-1-oxo-2-propanol]", "EC50": "0.001 to 0.999"}
{"smiles": "CCN(CC)[C@@H](C(=O)N1CCC[C@H]1c1ncc(-c2ccc(-c3ccc(-c4cnc([C@@H]5CCCN5C(=O)[C@@H](C)NC(=O)OC)[nH]4)cc3)cc2)[nH]1)c1ccccc1", "note": "[Example M53, methyl ((1R)-2-((2S)-2-(5-(4′-(2-((2S)-1-((2R)-2-(diethylamino)-2-phenylacetyl)-2-pyrrolidinyl)-1H-imidazol-5-yl)-4-biphenylyl)-1H-imidazol-2-yl)-1-pyrrolidinyl)-1-methyl-2-oxoethyl)carbamate]", "EC50": "1 to 99"}
{"smiles": "COC(=O)N[C@@H](C(=O)N1CCC[C@H]1c1ncc(-c2ccc(-c3ccc(-c4cnc([C@@H]5CCCN5C(=O)C(c5ccccn5)N(C)C)[nH]4)cc3)cc2)[nH]1)c1ccccc1", "note": "(stereo partly drawn) [Example 84-61, methyl ((1R)-2-((2S)-2-(5-(4′-(2-((2S)-1-((dimethylamino)(2-pyridinyl)acetyl)-2-pyrrolidinyl)-1H-imidazol-5-yl)-4-biphenylyl)-1H-imidazol-2-yl)-1-pyrrolidinyl)-2-oxo-1-phenylethyl)carbamate]", "EC50": "0.001 to 0.999"}
{"smiles": "COC(=O)N[C@H](C(=O)N1CCC[C@H]1c1ncc(-c2ccc(-c3ccc(-c4cnc([C@@H]5CCCN5C(=O)[C@@H](NC(=O)OC)C(C)(C)C)[nH]4)cc3)cc2)[nH]1)C(C)C", "note": "[Example M72, methyl ((1S)-1-(((2S)-2-(5-(4′-(2-((2S)-1-((2S)-2-((methoxycarbonyl)amino)-3,3-dimethylbutanoyl)-2-pyrrolidinyl)-1H-imidazol-5-yl)-4-biphenylyl)-1H-imidazol-2-yl)-1-pyrrolidinyl)carbonyl)-2-methylpropyl)carbamate]", "EC50": "1 to 99"}
